Experimental data from ChEMBL document CHEMBL4190191, “Cyclic Diarylheptanoids from Corylus avellana Green Leafy Covers: Determination of Their Absolute Configurations and Evaluation of Their Antioxidant and Antimicrobial Activities” (J Nat Prod, 2017).

Columns and labels:
Format in all cases: functional
Details in all cases: read-out: DIZ
Escherichia coli = assay: Antimicrobial activity against Escherichia coli DSM 8579 assessed as growth inhibition at 7 ug per disc after 24 to 48 hrs (reference value: 0 millimeter)
Bacillus cereus [1] = assay: Antimicrobial activity against Bacillus cereus DSM 4384 assessed as growth inhibition at 7 ug per disc after 24 to 48 hrs (reference value: 0 millimeter)
Bacillus cereus [2] = assay: Antimicrobial activity against Bacillus cereus DSM 4313 assessed as growth inhibition at 7 ug per disc after 24 to 48 hrs (reference value: 0 millimeter)
Pseudomonas aeruginosa = assay: Antimicrobial activity against Pseudomonas aeruginosa DSM 50071 assessed as growth inhibition at 7 ug per disc after 24 to 48 hrs (reference value: 0 millimeter)
Staphylococcus aureus = assay: Antimicrobial activity against Staphylococcus aureus DSM 25923 assessed as growth inhibition at 7 ug per disc after 24 to 48 hrs (reference value: 0 millimeter)

`CN(C)[C@@H]1C(O)=C(C(N)=O)C(=O)[C@@]2(O)C(O)=C3C(=O)c4c(O)cccc4[C@@](C)(O)[C@H]3C[C@@H]12` [TETRACYCLINE] showed a zone of inhibition at 7 µg/disc (Escherichia coli) of 12.7 mm, a zone of inhibition at 7 µg/disc (Bacillus cereus [1]) of 8.67 mm and a zone of inhibition at 7 µg/disc (Bacillus cereus [2]) of 10.3 mm. It also gave a zone of inhibition at 7 µg/disc (Pseudomonas aeruginosa) of 9.67 mm and a zone of inhibition at 7 µg/disc (Staphylococcus aureus) of 11.3 mm.
